Reference: patent US12371454B2, “Cyclic peptide compound having Kras inhibitory action” (priority 2019, dated 2025)
Starred links: 1 amine or outer side, 2 acyl side, 3 side chain; linkers in the order of their positions; H or OH if unused. Positions of bridges follow the written chain, without caps; N, C: chain ends. Non-standard residues stand in square brackets, D forms with d. Residues, ends and D or L forms follow the SMILES beside them. *: point of attachment. hPhe(3-Cl-4-CF3) = N[C@@H](CCc1ccc(C(F)(F)F)c(Cl)c1)C(=O)O; hPhe(3-F,4-CF3) = N[C@@H](CCc1ccc(C(F)(F)F)c(F)c1)C(=O)O; hPhe(4-CF3) = N[C@@H](CCc1ccc(C(F)(F)F)cc1)C(=O)O; NEtPhe(4-Cl) = CCN[C@@H](Cc1ccc(Cl)cc1)C(=O)O; NMePhe(4-Cl) = CN[C@@H](Cc1ccc(Cl)cc1)C(=O)O; NMePhe(4-Me) = CN[C@@H](Cc1ccc(C)cc1)C(=O)O; NMePhe(2-Cl) = CN[C@@H](Cc1ccccc1Cl)C(=O)O; NMedβ3hAla = C[C@H](CC(=O)[*:2])N(C)[*:1]; NMeGly(cPent) = CN[C@H](C(=O)O)C1CCCC1; Phe(3-I) = N[C@@H](Cc1cccc(I)c1)C(=O)O; Pro(4,4-F2) = O=C(O)[C@@H]1CC(F)(F)CN1; NMeCha = CN[C@@H](CC1CCCCC1)C(=O)O; NMeChg = CN[C@H](C(=O)O)C1CCCCC1; NMeF = CN[C@@H](Cc1ccccc1)C(=O)O; NMeI = CC[C@H](C)[C@H](NC)C(=O)O; NMeD = CN[C@@H](CC(=O)O)C(=O)O; CH2CONHtBu = CC(C)(C)NC(=O)C*; NMeL = CN[C@@H](CC(C)C)C(=O)O; NMeV = CN[C@H](C(=O)O)C(C)C; Trifluoroethyl = FC(F)(F)C*; d(β3hA) = C[C@@H](N)CC(=O)O; NMeS = CN[C@@H](CO)C(=O)O; NMeA = CN[C@@H](C)C(=O)O; NMeAib = CNC(C)(C)C(=O)O; Nle = CCCC[C@H](N)C(=O)O; Piperidide = C1CCN(*)CC1; Pyrrolidide = C1CCN(*)C1; Ac5c = NC1(C(=O)O)CCCC1; Aze = O=C(O)[C@@H]1CCN1; Ac4c = NC1(C(=O)O)CCC1; Sar = CNCC(=O)O

What follows are compounds tested against T1, Kras and SOS1 (biotin-tagged human Kras loaded with GDP, His-tagged human SOS1) (Homo sapiens, UniProt P01116, G12D) (assay: Protein-protein interaction inhibition between Kras and SOS1 (KrasGl2D-SOS PPI) using AlphaScreen). Settings: AlphaScreen; biotin-tagged human Kras loaded with GDP, His-tagged human SOS1; read-out: KRAS G12D-SOS PPI IC50.
T1 construct: made in house; host or cells: E. coli (stated for Kras only)
Format: binding
Method in brief: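 Donor beads (nickel) hold His-SOS1; acceptor beads (streptavidin) hold biotin-Kras bound to GDP. Signal measured at 520-620 nm following 680 nm excitation.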

T1 sequence (P01116 1-188 isoform P01116-2 G12D): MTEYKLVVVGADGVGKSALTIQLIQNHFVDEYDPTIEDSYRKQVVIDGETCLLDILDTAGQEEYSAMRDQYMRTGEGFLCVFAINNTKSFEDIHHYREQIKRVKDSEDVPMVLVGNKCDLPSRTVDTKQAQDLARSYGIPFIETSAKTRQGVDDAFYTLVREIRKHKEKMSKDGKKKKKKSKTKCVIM

SMILES | IC50 [nM]
CC[C@H](C)[C@@H]1NC(=O)[C@H](C)N(C)C(=O)C[C@@H](C(=O)N2CCCC2)NC(=O)[C@H](CC(C)C)N(C)C(=O)[C@H](Cc2ccccc2)N(C)C(=O)[C@H](CC(C)C)NC(=O)[C@H](Cc2cccc(I)c2)NC(=O)CN(C)C(=O)[C@H](Cc2ccc(Cl)cc2)N(C)C(=O)CN(C)C(=O)CN(C)C1=O [Compound 884] ([NMeA]I[Sar][Sar][NMePhe(4-Cl)][Sar][Phe(3-I)]L[NMeF][NMeL]D-Pyrrolidide; lactam N-11) | 63
CC[C@H](C)[C@@H]1NC(=O)[C@H](CC(C)C)N(C)C(=O)C[C@@H](C)N(C)C(=O)[C@H](CC(C)C)NC(=O)C(C)(C)N(C)C(=O)[C@H](CC(C)C)NC(=O)[C@H](CCc2ccc(C(F)(F)F)c(Cl)c2)NC(=O)CN(C)C(=O)[C@H](CC2CCCCC2)N(C)C(=O)[C@@H]2CCN2C(=O)[C@H](C)N(C)C1=O [Compound 886] (cyclo([Aze][NMeCha][Sar][hPhe(3-Cl-4-CF3)]L[NMeAib]L[NMedβ3hAla][NMeL]I[NMeA])) | 100
CC[C@H](C)[C@@H]1NC(=O)[C@H](C)N(C)C(=O)C[C@@H](C(=O)N2CCCC2)NC(=O)[C@H](CC(C)C)N(C)C(=O)[C@H](COCC(=O)NC(C)(C)C)N(C)C(=O)[C@H](CC(C)C)NC(=O)[C@H](CCc2ccc(C(F)(F)F)cc2)NC(=O)CN(C)C(=O)[C@H](Cc2ccc(Cl)cc2)N(C)C(=O)CN(C)C(=O)CN(C)C1=O [Compound 889] ([NMeA]I[Sar][Sar][NMePhe(4-Cl)][Sar][hPhe(4-CF3)]L[NMeS](CH2CONHtBu)[NMeL]D-Pyrrolidide; lactam N-11) | 70
CC[C@H](C)[C@@H]1NC(=O)[C@H](CC(C)C)N(C)C(=O)C[C@@H](C)N(C)C(=O)[C@H]([C@@H](C)CC)N(C)C(=O)C2(CCC2)NC(=O)[C@@H]2CC(F)(F)CN2C(=O)[C@H](CCc2ccc(C(F)(F)F)c(Cl)c2)NC(=O)CN(C)C(=O)[C@H](CC2CCCCC2)N(C)C(=O)CN(C)C(=O)CN(C)C1=O [Compound 891] (cyclo([Ac4c][NMeI][NMedβ3hAla][NMeL]I[Sar][Sar][NMeCha][Sar][hPhe(3-Cl-4-CF3)][Pro(4,4-F2)])) | 9.6
CC(C)C[C@H]1C(=O)N[C@@H](COCC(F)(F)F)C(=O)N(C)CC(=O)N(C)CC(=O)N(C)[C@@H](CC2CCCCC2)C(=O)N(C)CC(=O)N[C@@H](CCc2ccc(C(F)(F)F)c(Cl)c2)C(=O)N2CCC[C@H]2C(=O)NC2(CCCC2)C(=O)N(C)[C@@H](C2CCCCC2)C(=O)N(C)[C@H](C(=O)N2CCCCC2)CC(=O)N1C [Compound 894] ([NMeL]S(Trifluoroethyl)[Sar][Sar][NMeCha][Sar][hPhe(3-Cl-4-CF3)]P[Ac5c][NMeChg][NMeD]-Piperidide; lactam N-11) | 11
CCCC[C@@H]1NC(=O)[C@H](CCc2ccc(C(F)(F)F)c(Cl)c2)NC(=O)CN(C)C(=O)[C@H](Cc2ccc(Cl)cc2)N(CC)C(=O)CN(C)C(=O)CN(C)C(=O)[C@H]([C@@H](C)CC)NC(=O)[C@H](CC(C)C)N(C)C(=O)C[C@@H](C(=O)N2CCCCC2)N(C)C(=O)[C@H](CC(C)C)NC(=O)C(C)(C)N(C)C1=O [Compound 895] ([NMeL]I[Sar][Sar][NEtPhe(4-Cl)][Sar][hPhe(3-Cl-4-CF3)][Nle][NMeAib]L[NMeD]-Piperidide; lactam N-11) | 8.4
CC[C@H](C)[C@@H]1NC(=O)[C@H](C)N(C)C(=O)C[C@@H](C)NC(=O)[C@H](CC(C)C)N(C)C(=O)[C@H](CC(C)C)N(C)C(=O)[C@@H]2CCCN2C(=O)[C@H](CCc2ccc(C(F)(F)F)cc2)NC(=O)CN(C)C(=O)[C@H](Cc2ccc(Cl)cc2)N(C)C(=O)CN(C)C(=O)CN(C)C1=O [Compound 902] (cyclo(I[Sar][Sar][NMePhe(4-Cl)][Sar][hPhe(4-CF3)]P[NMeL][NMeL][d(β3hA)][NMeA])) | 140
CC[C@H](C)[C@@H]1NC(=O)[C@H](CC(C)C)N(C)C(=O)C[C@@H](C)N(C)C(=O)[C@H](CC(C)C)NC(=O)C(C)(C)N(C)C(=O)[C@H](CC(C)C)NC(=O)[C@H](CCc2ccc(C(F)(F)F)c(F)c2)NC(=O)CN(C)C(=O)[C@H](CC2CCCCC2)N(C)C(=O)CN(C)C(=O)[C@@H]2CCN2C1=O [Compound 905] (cyclo([Aze][Sar][NMeCha][Sar][hPhe(3-F,4-CF3)]L[NMeAib]L[NMedβ3hAla][NMeL]I)) | 180
CC[C@H](C)[C@@H]1NC(=O)[C@H](C)N(C)C(=O)C[C@@H](C(=O)N2CCCC2)N(C)C(=O)[C@H](C(C)C)N(C)C(=O)C2(CCC2)NC(=O)[C@H](Cc2ccccc2Cl)N(C)C(=O)[C@H](CCc2ccc(C(F)(F)F)c(Cl)c2)NC(=O)CN(C)C(=O)[C@H](CC2CCCCC2)N(C)C(=O)CN(C)C(=O)CN(C)C1=O [Compound 906] ([NMeA]I[Sar][Sar][NMeCha][Sar][hPhe(3-Cl-4-CF3)][NMePhe(2-Cl)][Ac4c][NMeV][NMeD]-Pyrrolidide; lactam N-11) | 2.7
CC[C@H](C)[C@@H]1NC(=O)[C@H](CC(C)C)N(C)C(=O)C[C@@H](C(=O)N(C)C)N(C)C(=O)[C@H](C2CCCC2)N(C)C(=O)C2(CCCC2)NC(=O)[C@H](Cc2ccc(C)cc2)N(C)C(=O)[C@H](CCc2ccc(C(F)(F)F)c(Cl)c2)NC(=O)CN(C)C(=O)[C@H](CC2CCCCC2)N(C)C(=O)[C@@H]2CCN2C(=O)[C@H](C)N(C)C1=O [Compound 908] ([NMeL]I[NMeA][Aze][NMeCha][Sar][hPhe(3-Cl-4-CF3)][NMePhe(4-Me)][Ac5c][NMeGly(cPent)][NMeD]-NMe2; lactam N-11) | 39
